Patent US20230014907A1, “INHIBITORS OF APOL1 AND METHODS OF USING SAME” (Vertex Pharmaceuticals Incorporated, priority 2020, published 2023)

Target: T1, G1 APOL1 (Homo sapiens, UniProt O14791, I384M/S342G)
T1 construct: expressed in transfected cells
T1 sequence (O14791 28-398 S342G/I384M): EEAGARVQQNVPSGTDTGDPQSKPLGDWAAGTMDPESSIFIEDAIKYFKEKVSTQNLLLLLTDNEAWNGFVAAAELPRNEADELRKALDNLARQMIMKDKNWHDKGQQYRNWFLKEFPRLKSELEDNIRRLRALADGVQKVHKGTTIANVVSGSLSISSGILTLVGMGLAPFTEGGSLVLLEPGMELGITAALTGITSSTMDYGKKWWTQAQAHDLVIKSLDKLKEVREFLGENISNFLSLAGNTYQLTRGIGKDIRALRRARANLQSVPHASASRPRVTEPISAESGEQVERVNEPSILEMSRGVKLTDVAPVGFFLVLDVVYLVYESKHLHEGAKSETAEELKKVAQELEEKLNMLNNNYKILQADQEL
Test: Acute APOL1 Thallium Assay with Inducible Stable Clones of HEK 293 Cells
Type: cell-based
Details: HEK 293 inducible stable clones, G1 APOL1; read-out: Thallium Assay (IC50)
Source text: Acute APOL1 Thallium Assay with Inducible Stable Clones of HEK 293 Cells
Apolipoprotein L1 (APOL1) proteins form potassium-permeable cation pores in the plasma membrane. APOL1 risk variants (G1 and G2) induce greater potassium flux than G0 in HEK293 cells. This assay exploits the permeability of thallium (Tl+) through ligand-gated potassium channels. The dye produces a bright fluorescent signal upon binding to Tl+ conducted through potassium channels. The intensity of the Tl+ signal is proportional to the number of potassium channels in the open state. Therefore, it provides a functional indication of the potassium channel activities. During the initial dye-loading step, the Tl+ indicator dye as an acetoxymethyl (AM) ester enters the cells through passive diffusion. Cytoplasm esterases cleave the AM ester and relieve its active thallium-sensitive form. The cells are then stimulated with Tl+. The increase of fluorescence in the assay represents the influx of Tl+ into the cell specifically through the potassium channel (i.e. through APOL1 pores), providing a functional measurement of potassium channel/pore activity. The Thallium assay is conducted with cells expressing G1 APOL1.
APOL1 Cell Line (HEK T-Rex Stable Inducible Cell Line) • HEK T-Rex System • Tetracycline (Tet) inducible mammalian expression system. • Stably express the Tet repressor to regulate transcription. • Expression under the full-length CMV promoter. • APOL1 stable inducible cell line Clone used: G1 DC3.25
Tissue Culture Media • Cell Culture Medium • DMEM+10% FBS+P/S+5 μg/mL blasticidin+1 μg/mL puromycin. • 500 mL DMEM+55 mL FBS+5 mL P/S+280 μL blasticidin S HCl (10 mg/mL)+56 μL puromycin (10 mg/mL). • Cell Assay Medium • DMEM with 2% FBS+penicillin/streptomycin.
Instruments and Equipment • Nuaire cell culture hood, Cat. No. 540-600 • 37° C./5% CO2 incubator link to robotic arm, Liconic: STX110 • Molecular Devices FLIPR^Tetra High throughput cellular screening system, Cat. No. FT0324, Molecular Devices • ThermoFisher MultiDrop 384, Cat. No. 5840300 • Biotek Microfill, Cat. No. ASF1000A-4145 • BioRad TC10 cell counter, Cat. No. 145-0010
Cells Scaled Up from Frozen Vials • APOL1 G1 3.25 (HEK293 T-Rex) frozen vials: 5 million cells per vial • Step 1, Day 1: Defrost frozen vial into T-225. • Step 2, Day 5: (when 85% confluent): Split one T-225 at 3×10^6 cells per flask. • Step 3, Day 8: Splits cells to set up for the assay plates as described below.
T-Rex APOL1 HEK cells are split twice per week to keep the confluence state below 85% of the culture flask surface area. Cells can be kept until passage 25. • Cell Culture Medium • DMEM high glucose+10% FBS, +P/S, +5 μg/mL blasticidin, +1 μg/mL puromycin. • 500 mL DMEM, +55 mL FBS, +5 mL P/S, +280 μL blasticidin 10 mg/mL, +56 μL Puromycin 10 mg/mL. • Assay Media • Opti-MEM reduced serum medium from Invitrogen.
Preparation of Cell Assay Plates • Culture medium is removed from the x cm^2 T-flask by aspiration. • The cell monolayer is rinsed with PBS 1× at room temperature. PBS is removed by aspiration. • Cells are trypsinized using Trypsin. • The flasks are incubated at room temperature for 2-3 minutes. • Complete DMEM medium is then added. Cell suspension is then transferred to a 50 mL Falcon polypropylene tube. • Cells are then counted using a BioRad TC10 cell counter and the required amount of cells are centrifuged at 1200 RPM for 5 minutes. Required amount is 1.3×10^6 cells/mL APOL1 T-Rex HEK cells. • The pellet is suspended in the assay medium. • Using the MultiDrop, add 20 μL to each well (corresponds to 26000 cells total per well) of a 384-well black, transparent, flat bottom Poly-D coated plate. • Tetracycline as prepared in the following section is added to the cells before plating to induce APOL1 expression. • Plates are left at room temperature for 20 to 30 minutes before incubation at 37° C. and 5% CO2. […]

SMILES: Cc1cc(F)c2[nH]c(-c3ccc(F)cc3)c(CCC(=O)NC(C#N)CO)c2c1 (stereo not drawn) [Compound 215]
- IC50: 250 to 1000 nM

SMILES: O=C(NCCc1c(-c2ccc(F)cc2)[nH]c2c(F)cc(F)cc12)c1ccncc1 [Compound 402]
- IC50: > 1000 nM

SMILES: O=C1CC(C(=O)NCCc2c(-c3ccc(F)cc3)[nH]c3c(F)cc(F)cc23)CCN1 (stereo not drawn) [Compound 331]
- IC50: > 1000 nM

SMILES: O=C(N[C@@H]1CCNC1=O)OCCc1c(-c2ccc(F)cc2)[nH]c2c(F)cc(F)cc12 [Compound 448]
- IC50: < 250 nM

SMILES: O=C(NCCc1c(-c2ccc(F)cc2)[nH]c2c(F)cc(F)cc12)c1nc(C(F)(F)F)cs1 [Compound 368]
- IC50: > 1000 nM

SMILES: O=C(NCc1ccco1)OCCc1c(-c2ccc(F)cc2)[nH]c2c(F)cc(F)cc12 [Compound 481]
- IC50: > 1000 nM

SMILES: O=C1NC[C@@H](O)[C@@H]1NCCc1c(-c2ccc(F)cc2)[nH]c2c(F)cc(F)cc12 [Compound 427, (3S,4R)-3-((2-(5,7-difluoro-2-(4-fluorophenyl)-1H-indol-3-yl)ethyl)amino)-4-hydroxypyrrolidin-2-one]
- IC50: > 1000 nM

SMILES: O=C(CCCc1c(-c2ccc(F)cc2)[nH]c2c(F)cc(F)cc12)NCC1CNC(=O)C1 (stereo not drawn) [Compound 252]
- IC50: > 1000 nM

SMILES: Cn1nccc1CNC(=O)CCCc1c(-c2ccc(F)cc2)[nH]c2c(F)cc(F)cc12 [Compound 255]
- IC50: > 1000 nM

SMILES: C[C@@H](O)CNC(=O)OCCc1c(-c2ccc(F)cc2)[nH]c2c(F)cc(F)cc12 [Compound 450]
- IC50: < 250 nM

SMILES: O=C(NCCc1c(-c2ccc(F)cc2)[nH]c2c(F)cc(F)cc12)c1ccnc(C(F)(F)F)c1 [Compound 369]
- IC50: > 1000 nM

SMILES: Cc1cc(F)c2[nH]c(-c3ccc(F)cc3)c(CCC(=O)N[C@H](CO)C(N)=O)c2c1 [Compound 220]
- IC50: > 1000 nM

SMILES: N#CC(NC(=O)OCCc1c(-c2ccc(F)cc2)[nH]c2c(F)cc(F)cc12)C(N)=O (stereo not drawn) [Compound 456]
- IC50: 250 to 1000 nM

SMILES: CC(C)(C)OC(=O)NCC(=O)NCCc1c(-c2ccc(F)cc2)[nH]c2c(F)cc(F)cc12 [Compound 317]
- IC50: > 1000 nM

SMILES: O=C(NC(CO)CF)OCCc1c(-c2ccc(F)cc2)[nH]c2c(F)cc(F)cc12 (stereo not drawn) [Compound 471]
- IC50: 250 to 1000 nM

SMILES: O=C1CNC(=O)N1CCc1c(-c2ccc(F)cc2)[nH]c2c(F)cc(F)cc12 [Compound 258, 3-[2-[5,7-difluoro-2-(4-fluorophenyl)-1H-indol-3-yl]ethyl]imidazolidine-2,4-dione]
- IC50: > 1000 nM

SMILES: O=C(NCCc1c(-c2ccc(F)cc2)[nH]c2c(F)cc(F)cc12)NCCS(=O)(=O)O [Compound 263]
- IC50: > 1000 nM

SMILES: CC(C)(O)CNC(=O)NCCc1c(-c2ccc(F)cc2)[nH]c2c(F)cc(F)cc12 [Compound 279]
- IC50: > 1000 nM

SMILES: O=C(NCCc1c(-c2ccc(F)cc2)[nH]c2c(F)cc(F)cc12)c1cccnn1 [Compound 396]
- IC50: > 1000 nM

SMILES: O=C(N[C@H]1C[C@H](O)C1)OCCc1c(-c2ccc(F)cc2)[nH]c2c(F)cc(F)cc12 [Compound 464]
- IC50: 250 to 1000 nM

SMILES: O=C(NCCc1c(-c2ccc(F)cc2)[nH]c2c(F)cc(F)cc12)c1c[nH]nc1C(F)(F)F [Compound 316]
- IC50: > 1000 nM

SMILES: C[C@@H](CO)N(C)C(=O)NCCc1c(-c2ccc(F)cc2)[nH]c2c(F)cc(F)cc12 [Compound 300]
- IC50: > 1000 nM

SMILES: Cn1cc(CNC(=O)OCCc2c(-c3ccc(F)cc3)[nH]c3c(F)cc(F)cc23)nn1 [Compound 490]
- IC50: > 1000 nM

SMILES: O=C(NCCc1c(-c2ccc(F)cc2)[nH]c2c(F)cc(F)cc12)c1ncccn1 [Compound 397]
- IC50: > 1000 nM
